Values of other authors as cited in patent US20200396998A1, “HERBICIDAL COMBINATIONS” (UPL LTD, priority 2017, published 2020).

System: broadleaf weed
Settings: saflufenacil alone; early season broadleaf weed control

CC(C)N(C)S(=O)(=O)NC(=O)c1cc(-n2c(=O)cc(C(F)(F)F)n(C)c2=O)c(F)cc1Cl [Saflufenacil, N′{2-chloro-4-fluoro-5-[1,2,3,6-tetrahydro-3-methyl-2,6-dioxo-4-(trifluoromethyl)pyrimidin-1-yl]benzoyl}-N-isopropyl-N-methylsulfamide]
Weed control efficacy over time, in words: reduced beyond 30 days after treatment
